The values below come from ChEMBL document CHEMBL5728675, “5-alkyl pyrrolidine orexin receptor agonists” (2021).

This experiment deals with T1, Orexin receptor type 2 (Homo sapiens, UniProt O43614).
T1 sequence (O43614 whole entry): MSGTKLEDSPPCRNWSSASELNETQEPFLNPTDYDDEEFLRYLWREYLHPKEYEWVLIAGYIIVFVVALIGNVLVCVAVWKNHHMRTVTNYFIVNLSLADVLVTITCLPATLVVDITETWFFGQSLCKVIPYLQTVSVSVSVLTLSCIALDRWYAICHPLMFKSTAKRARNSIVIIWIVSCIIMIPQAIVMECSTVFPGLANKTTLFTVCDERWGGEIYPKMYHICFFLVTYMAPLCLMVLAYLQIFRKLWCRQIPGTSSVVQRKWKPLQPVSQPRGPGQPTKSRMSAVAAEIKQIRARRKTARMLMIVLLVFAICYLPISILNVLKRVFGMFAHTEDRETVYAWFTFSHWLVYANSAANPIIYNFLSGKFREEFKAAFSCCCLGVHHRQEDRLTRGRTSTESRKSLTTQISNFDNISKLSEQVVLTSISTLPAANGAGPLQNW
The experiment in a line: Receptor Activity Assay: In a typical experiment, the OX1 and OX2 receptor agonist activity is determined in accordance with the following general experimental method.
Compound `CC(C)OC(=O)N1[C@H](C)C[C@H](NS(=O)(=O)N(C)C)[C@@H]1COC1CCN(c2ncc(F)cn2)CC1` had an IC50 of 1.15 nM. `COC(=O)N1C(C2CC2)C[C@H](NS(C)(=O)=O)C1COC1CCC(c2ccccc2)CC1` (stereo partly specified) registered an IC50 of 73.5 nM. Against the preceding compound, the IC50 is about 64-fold higher. For `CCc1ccccc1[C@H]1CC[C@H](OC[C@H]2[C@@H](NS(=O)(=O)N(C)C)C[C@@H](C)N2C(=O)OC)CC1`, the IC50 turned out to be 111 nM. For `COC[C@@H]1C[C@H](NS(=O)(=O)N(C)C)[C@H](CO[C@H]2CC[C@@H](c3cccc(F)c3)CC2)N1C(=O)OC` the value was 0.7 nM. Consider `COC(=O)N1[C@H](C)C[C@H](NS(=O)(=O)N(C)C)[C@@H]1CO[C@@H]1CC[C@H](c2ccccc2)CC1F` (stereo partly specified), for which the IC50 was 10.8 nM. In turn, `COC(=O)N1[C@H](C)C[C@H](NS(=O)(=O)N(C)C)[C@@H]1CO[C@H]1CC[C@@H](c2cc(F)cc(F)c2)CC1` registered an IC50 of 0.52 nM. For `COC(=O)N1[C@H](C)C[C@H](NS(C)(=O)=O)[C@@H]1CO[C@H]1CC[C@@H](c2cc(F)ccc2F)CC1` the value was 1.67 nM; for `COC(=O)N1[C@H](C)C[C@H](NS(C)(=O)=O)[C@@H]1CO[C@H]1CC[C@@H](C(C)C)CC1`, 17.7 nM. `CCc1ccccc1[C@H]1CC[C@@H](OC[C@H]2[C@@H](NS(=O)(=O)N(C)C)C[C@@H](C)N2C(=O)OC)CC1` registered an IC50 of 2.2 nM. This IC50 lies about 8-fold lower than the previous one. The same measure for `COCCS(=O)(=O)N[C@H]1C[C@@H](C)N(C(=O)OC)[C@H]1COC1CCC(c2cccc(F)c2)CC1` (stereo partly specified): 4.6 nM; for `COC(=O)N1[C@H](C)C[C@H](NS(=O)(=O)N(C)CC#N)[C@@H]1CO[C@H]1CC[C@@H](c2cccc(F)c2)CC1`: 0.6 nM. Turning to `COC(=O)N1[C@H](C)C[C@H](NS(=O)(=O)N(C)C)[C@@H]1CO[C@H]1CC[C@@H](c2ccccc2F)CC1`, the IC50 stood at 0.92 nM. This IC50 is about 1.5-fold higher than that of the compound before. On to `CC[C@@H]1C[C@H](NS(C)(=O)=O)[C@H](CO[C@H]2CC[C@@H](c3ccccc3)CC2)N1C(=O)OC`, for which the IC50 was found to be 3 nM.

Compound `COC(=O)N1[C@H](C)C[C@H](NS(C)(=O)=O)[C@@H]1CO[C@H]1CC[C@@H](c2ccccc2C(F)(F)F)CC1` showed a 50% inhibitory concentration (IC50) of 6.82 nM. Consider `C[C@@H]1C[C@H](NS(=O)(=O)N(C)C)[C@H](CO[C@H]2CC[C@@H](c3cc(F)ccc3F)CC2)N1C(=O)OCC(F)F`, for which the IC50 amounted to 0.66 nM.

For `COC(=O)N1[C@H](C)C[C@H](NS(=O)(=O)N(C)C)[C@@H]1CO[C@@H]1CC[C@H](c2cccc(F)c2)CC1F` (stereo partly specified), the IC50 was 3.63 nM. As for `COC(=O)N1[C@H](C)C[C@H](NS(C)(=O)=O)[C@@H]1CO[C@H]1CC[C@@H](c2c(F)ccc(F)c2F)CC1`, the half-inhibitory concentration (IC50) was found to be 1.07 nM. Turning to `COC(=O)N1[C@H](C)C[C@H](NS(=O)(=O)CC(F)F)[C@@H]1CO[C@H]1CC[C@@H](c2cccc(F)c2)CC1`, the IC50 is 5.2 nM. Compound `COC(=O)N1[C@H](C)C[C@H](NS(=O)(=O)N(C)C)[C@@H]1CO[C@H]1CC[C@H](c2ccc(C#N)c(C)c2)CC1` showed an IC50 of 12.5 nM. As to `COC(=O)N1[C@H](C)C[C@H](NS(=O)(=O)N(C)C)[C@@H]1CO[C@H]1CC[C@@H](c2ccc(C#N)c(C)c2)CC1`, the IC50 worked out at 1.1 nM. Against the preceding compound, the IC50 is about 11-fold lower. Compound `COC(=O)N1[C@H](C)C[C@H](NS(=O)(=O)N(C)C)[C@@H]1CO[C@H]1CC[C@@H](c2cc(F)ccc2F)CC1` showed an IC50 of 0.47 nM.

For `COC(=O)N1[C@H](C)C[C@H](NS(C)(=O)=O)[C@@H]1CO[C@H]1CC[C@@H](c2ccc(F)c(F)c2)CC1`, the IC50 was 25.5 nM. For `COC(=O)N1[C@H](C)C[C@H](NS(=O)(=O)CF)[C@@H]1CO[C@H]1CC[C@@H](c2ccccc2)CC1` the value was 0.93 nM. `COC(=O)N1[C@H](C)C[C@H](NS(=O)(=O)CF)[C@@H]1COC1CCC(c2cccc(F)c2)CC1` (stereo partly specified): the IC50 turned out to be 1.4 nM. With `CC[C@H]1C[C@@H](NS(C)(=O)=O)[C@@H](CO[C@H]2CC[C@@H](c3ccccc3)CC2)N1C(=O)OC`, the IC50 was found to be 7330 nM. This IC50 lies about 5200-fold higher than the previous one.

Compound `C=C[C@@H]1C[C@H](NS(C)(=O)=O)[C@H](CO[C@H]2CC[C@@H](c3ccccc3)CC2)N1C(=O)OC` (relative stereo) had an IC50 of 9.4 nM. This IC50 lies about 780-fold lower than the previous one.

As a reminder, the IC50 is the concentration at which inhibition is half-maximal. Low values mean greater potency, high ones weaker potency.
